Target: T1, human oxytocin receptor (Homo sapiens, UniProt P30559)
T1 construct: host or cells: CHO cells (pcDNA3.1 vector)
T1 sequence (P30559 1-389): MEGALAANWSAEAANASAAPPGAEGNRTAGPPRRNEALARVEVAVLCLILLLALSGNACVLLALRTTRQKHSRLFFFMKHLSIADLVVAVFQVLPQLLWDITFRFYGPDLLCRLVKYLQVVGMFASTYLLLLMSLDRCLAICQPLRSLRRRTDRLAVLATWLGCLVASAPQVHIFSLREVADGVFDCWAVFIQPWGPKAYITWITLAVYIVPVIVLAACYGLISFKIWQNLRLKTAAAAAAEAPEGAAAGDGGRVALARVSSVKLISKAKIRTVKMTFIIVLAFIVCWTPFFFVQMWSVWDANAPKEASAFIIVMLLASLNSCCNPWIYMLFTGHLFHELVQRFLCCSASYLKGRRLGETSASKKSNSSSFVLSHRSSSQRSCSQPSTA
Assay: Oxytocin binding in Chinese Hamster Ovary cell membranes expressing human oxytocin receptors
Settings: 100 nM, CHO cell membranes, [3H]oxytocin, values without parentheses; for inhibition at 0.1 µM: read-out: OT % inhibition @ 100% nM

SMILES | inhibition at 0.1 µM | OT % inhibition @ 100% nM
COc1ccccc1-c1ccc(C(=O)N2Cc3ccc(C(=O)N4CCC[C@H]4CN4CCCC4)n3Cc3ccccc32)cc1C [Example 259, {10-[(2′-Methoxy-2-methyl[1,1′-biphenyl]-4-yl)carbonyl]-10,11-dihydro-5H-pyrrolo[2,1-c][1,4]benzodiazepin-3-yl}[(2S)-2-(1-pyrrolidinylmethyl)pyrrolidinyl]methanone] | – | 97%
COc1cccc(-c2cc(OC)c(C(=O)N3Cc4ccc(C(=O)N5CC[C@@H](N(C)C)C5)n4Cc4ccccc43)cc2Cl)c1 [Example 275, {10-[(6-Chloro-3,3′-dimethoxy[1,1′-biphenyl]-4-yl)carbonyl]-10,11-dihydro-5H-pyrrolo[2,1-c][1,4]benzodiazepin-3-yl}[(3R)-3-(dimethylamino)pyrrolidinyl]methanone] | – | 89%
COc1cccc(-c2ccc(C(=O)N3Cc4ccc(C(=O)N5CCC(N6CCCC6)CC5)n4Cc4ccccc43)cc2OC)c1 [Example 146, {10-[(2,3′-Dimethoxy[1,1′-biphenyl]-4-yl)carbonyl]-10,11-dihydro-5H-pyrrolo[2,1-c][1,4]benzodiazepin-3-yl}[4-(1-pyrrolidinyl)-1-piperidinyl]methanone] | 78% | –
Cc1cc(C(=O)N2Cc3ccc(C(=O)NCCCN(C)C)n3Cc3ccccc32)ccc1-c1ccccc1C(F)(F)F [Example 84, N-[3-(Dimethylamino)propyl]-10-{[2-methyl-2′-(trifluoromethyl)[1,1′-biphenyl]-4-yl]carbonyl}-10,11-dihydro-5H-pyrrolo[2,1-c][1 .4]benzodiazepine-3-carboxamide] | – | 48%
COc1ccccc1-c1ccc(C(=O)N2Cc3ccc(C(=O)N4CCC[C@H]4CN4CCCC4)n3Cc3ccccc32)cc1 [Example 265, {10-[(2′-Methoxy[1,1′-biphenyl]-4-yl)carbonyl]-10,11-dihydro-5H-pyrrolo[2,1-c][1,4]benzodiazepin-3-yl}[(2S)-2-(1-pyrrolidinylmethyl)pyrrolidinyl]methanone] | – | 100%

Second part, led by results:

inhibition at 0.1 µM | SMILES | OT % inhibition @ 100% nM
69% | COc1cccc(-c2cc(OC)c(C(=O)N3Cc4ccc(C(=O)N5CCC(N6CCCC6)CC5)n4Cc4ccccc43)cc2Cl)c1 [Example 143, {10-[(6-Chloro-3,3′-dimethoxy[1,1′-biphenyl]-4-yl)carbonyl]-10,11-dihydro-5H-pyrrolo[2,1-c][1,4]benzodiazepin-3-yl}[4-(1-pyrrolidinyl)-1-piperidinyl]methanone] | –
87% | COc1ccccc1-c1ccc(C(=O)N2Cc3ccc(C(=O)N4CCC(N5CCCC5)CC4)n3Cc3ccccc32)cc1 [Example 140, {10-[(2′-Methoxy[1,1′-biphenyl]-4-yl)carbonyl]-10,11-dihydro-5H-pyrrolo[2,1-c][1,4]benzodiazepin-3-yl}[4-(1-pyrrolidinyl)-1-piperidinyl]methanone] | –
25% | Cc1ccccc1-c1ccc(C(=O)N2Cc3ccc(C(=O)N4CCC(N5CCCCC5)CC4)n3Cc3ccccc32)cc1 [Example 115, {10-[(2′-Methyl[1,1′-biphenyl]-4-yl)carbonyl]-10,11-dihydro-5H-pyrrolo[2,1-c][1,4]benzodiazepin-3-yl}[4-(1-piperidinyl)-1-piperidinyl]methanone] | –
24% | Cc1cc(C(=O)N2Cc3ccc(C(=O)NCCCn4ccnc4)n3Cc3ccccc32)ccc1-c1ccccc1C(F)(F)F [Example 135, N-[3-(1H-Imidazol-1-yl)propyl]-10-{[2-methyl-2′-(trifluoromethyl)[1,1′-biphenyl]-4-yl]carbonyl}-10,11-dihydro-5H-pyrrolo[2,1-c][1,4]benzodiazepine-3-carboxamide] | –
53% | COc1cc(C(=O)N2Cc3ccc(C(=O)N4CCC(N5CCCC5)CC4)n3Cc3ccccc32)ccc1-c1cccc2ccccc12 [Example 144, {10-[3-Methoxy-4-(1-naphthyl)benzoyl]-10,11-dihydro-5H-pyrrolo[2,1-c][1,4]benzodiazepin-3-yl}[4-(1-pyrrolidinyl)-1-piperidinyl]methanone] | –

From patent US7109193B2, “Tricyclic diazepines tocolytic oxytocin receptor antagonists” (Wyeth, priority 2001, dated 2006)
